One test concerns Aorta. The test is described as follows: Inhibition of contractions in aorta (indication of selectivity). The format is cell-based.
Test [1] relates to swelling induced chloride channel current. The test is described as follows: Chloride channel blockade, swelling induced chloride current in bladder cells. Particulars: bladder cell, ICl type swelling (210 mOsm), 60 mV. The format is cell-based, guinea pig. An excerpt: Normal human bronchial epithelial cells (NHBE) were commercially available from Clonetics Corporation (San Diego, Calif.) and bladder cells were isolated from rat bladder.
The normal external solution contained (in mM): N-methyl d-Glucamine chloride (NMDGCl). 140, MgCl2 2, CaCl2 2 and 4-(2-hydroxyethyl)-1-piperazine ethanesulfonic acid (HEPES) 10. The normal pipette solution contained (in mM): NMDGCl. 125, HEPES 10, MgCl2 2, ethylenebis(oxonitrilo)tetaaacetate (EGTA) 2, and ATPMg 5, the pH adjusted to 7.3 with TRIS. To identify the leak conductance from depolarization, internal Cl ion concentration was reduced to 40 mM using glutamic acid (ECl approximately -31 mV according Nernst equation). The osmolarity for standard external solution was about 280 mOsm. Hypotonic solutions were obtained by diluting the normal external solution with distilled water.
The whole cell voltage clamp recording techniques were utilized to record membrane ionic currents. The volume of the recording chamber was 1 ml and the rate of superfusion was 4 ml/min. Membrane currents were recorded using an Axopatch 200A Patch Clamp Amplifier (Axon Instruments, Inc., Foster City, Calif.). Under voltage clamp conditions, the cells were stimulated at 0.2 Hz to be sure channels were completely recovered between two voltage steps. […]

Test [2] has as its target T1, calcium-dependent large conductance potassium channels (maxi K^+) (Rattus norvegicus, UniProt Q62976).
T1 construct: endogenous in cells; host or cells: freshly isolated rat detrusor (urinary bladder smooth muscle) cells
Briefly: Potassium channel activation, whole cell patch clamp in isolated rat detrusor cells. Type of test: cell-based. Particulars: 10 μM in superfusate; isolated rat bladder cells. As to the method:
Potassium channel activation by compounds of the present invention was established by examining the effect of the compound of Example 1 on calcium-dependent large conductance potassium channels (maxi K^+) as follows:
Rat detrusor cells were isolated in a manner previously described for guinea-pig detrusor (Sheldon and Argentieri, 1995). Male Sprague-Dawley rats (200-400 grams) were euthanized by CO2 inhalation and exsanguination. Their urinary bladders were rapidly removed and placed in 37° C. physiological solution with the following composition (mM): Na glutamate (80.0), NaCl (54.7), KCl (5.0), NaHCO3 (25.0), MgCl2.2H2 O (2.5), D-glucose (11.8) and CaCl2 (0.2) gassed with CO2 --O2, 95%/5% for a final pH of 7.4. The dome of the bladder was isolated from the trigon region and the mucosa was removed. This tissue was then cut into 2-3 mm wide strips and placed in fresh buffer for 1 hour. Tissues were then transferred into 10.0 ml of an isolation buffer containing the above composition plus collagenase type VIII (1.0 mg/ml) and pronase (0.25 mg/ml). After 10 minutes the isolation buffer was replaced with fresh isolation buffer for an additional 10 min. […]
Whole cell recordings were made using broken patch assess. […] After stability was achieved control currents were recorded. […] Currents were recorded for 5 to 10 minutes or until compound effects reached steady state. […]
On the technique in general: The patch-clamp technique gives a direct electrical read-out from membranes.

For test [3], the system named is Isolated Rat Bladder Strips. The test is described as follows: Inhibition of contractions in isolated rat bladder strips. The format is cell-based. As to the method:
Sprague-Dawley rats (150-200 g) are rendered unconscious by CO2 asphyxiation and then euthanized by cervical dislocation. […] The bladder is opened and then cut into strips 1-2 mm in width and 7-10 mm in length. The strips are subsequently suspended in a 10 mL tissue bath under an initial resting tension of 1.5 g. The strips are held in place by two surgical clips one of which is attached to a fixed hook while the other is attached to an isometric force transducer. […] The carbachol is then washed out and the tissue allowed to relax to its resting level of activity. Following a further 30 min period of recovery an additional 15 mM KCl are introduced into the tissue bath. […] Following stabilization of this enhanced level of contractile activity, incremental increases in the concentration of test compound or vehicle are introduced into the tissue bath. Contractile activity is measured for each compound or vehicle concentration during the last minute of a 30 minute challenge.

T1 sequence (Q62976 whole entry): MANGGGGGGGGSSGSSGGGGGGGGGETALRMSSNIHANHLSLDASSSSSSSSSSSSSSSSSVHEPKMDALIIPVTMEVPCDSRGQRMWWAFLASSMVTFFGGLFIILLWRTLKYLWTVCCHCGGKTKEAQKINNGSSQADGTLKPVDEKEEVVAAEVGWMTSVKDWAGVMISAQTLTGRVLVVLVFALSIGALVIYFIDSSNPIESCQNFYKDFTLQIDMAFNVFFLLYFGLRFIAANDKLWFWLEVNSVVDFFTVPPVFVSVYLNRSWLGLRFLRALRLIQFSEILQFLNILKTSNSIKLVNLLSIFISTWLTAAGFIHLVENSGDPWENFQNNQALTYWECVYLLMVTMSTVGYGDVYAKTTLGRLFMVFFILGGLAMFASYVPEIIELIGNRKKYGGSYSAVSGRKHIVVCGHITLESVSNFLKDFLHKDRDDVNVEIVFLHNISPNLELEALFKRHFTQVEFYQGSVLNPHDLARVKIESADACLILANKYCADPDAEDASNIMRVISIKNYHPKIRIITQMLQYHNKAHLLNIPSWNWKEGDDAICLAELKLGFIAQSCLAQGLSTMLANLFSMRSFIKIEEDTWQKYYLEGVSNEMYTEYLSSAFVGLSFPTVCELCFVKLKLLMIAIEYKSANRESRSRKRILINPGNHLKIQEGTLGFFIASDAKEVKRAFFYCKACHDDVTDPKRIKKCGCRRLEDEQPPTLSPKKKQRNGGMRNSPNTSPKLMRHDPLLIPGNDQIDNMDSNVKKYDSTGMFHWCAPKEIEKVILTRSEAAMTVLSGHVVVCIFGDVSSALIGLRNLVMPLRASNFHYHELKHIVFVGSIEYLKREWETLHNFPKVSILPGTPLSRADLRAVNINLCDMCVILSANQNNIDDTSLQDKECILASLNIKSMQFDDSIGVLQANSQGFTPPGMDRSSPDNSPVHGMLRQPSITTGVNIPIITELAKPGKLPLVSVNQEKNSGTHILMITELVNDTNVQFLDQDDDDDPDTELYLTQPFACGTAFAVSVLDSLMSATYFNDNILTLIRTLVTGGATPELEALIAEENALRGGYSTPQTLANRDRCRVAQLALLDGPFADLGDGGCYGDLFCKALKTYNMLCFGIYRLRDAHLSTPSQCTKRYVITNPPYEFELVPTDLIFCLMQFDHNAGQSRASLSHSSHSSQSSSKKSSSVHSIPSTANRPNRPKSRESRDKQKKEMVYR
T1 sequence (P97678 whole entry partner): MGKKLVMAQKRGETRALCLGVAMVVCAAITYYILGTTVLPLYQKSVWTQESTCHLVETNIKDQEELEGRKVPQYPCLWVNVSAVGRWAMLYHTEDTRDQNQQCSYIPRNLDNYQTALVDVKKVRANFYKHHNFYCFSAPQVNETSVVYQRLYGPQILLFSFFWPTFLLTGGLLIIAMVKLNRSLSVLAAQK

As to `C/C(=C\c1ccc(C(F)(F)F)cc1)C(=O)Nc1ccccc1C(=O)[O-].[Li+]` [Example 1, Step 4, (E)-2-[2-Methyl-3-(4-trifluoromethyl-phenyl)-acryloylamino]-benzoic acid lithium salt], the IC50 worked out at 41.9 ± 8.4 µM with Aorta and 1.07 ± 0.37 µM in test [3] (contractions enhanced by additional 15 mM KCl, isolated rat bladder strips, read-out: IC50 /μM Bladder (B)). Also, the “% blockade 20 μM” value in test [1] was found to be 67%. The “effect on outward current” value in test [2] is “increase in outward current that was reversible upon washout”. In addition, the “IC50 (A)/ IC50 (B)” value in test [3] (ratio aorta/bladder, indication of selectivity) is 39.6.

For the origin of these results see patent publication US6046239A, “Anthranilic acid analogs” (American Home Products Corporation, priority 1998, dated 2000).
